We go through 31 compounds from US8772480B2, “Inhibitors of PI3 kinase and/or mTOR” (priority 2009, dated 2014).

In one test the target is PI3Kα (Homo sapiens (Human), UniProt P42336). The following applies: read-out: PI3Kα AlphaScreen ® Ki. In general terms: Bead proximity is the source of the signal in Alpha formats.
The test system of test [1] is phosphorylation of Akt at Serine 473 in U87 MG cells. Put plainly: cells. The following applies: Homo sapiens, U-87 MG, 2 h, read-out: U87Cell IC50, pAkt (Ser 473), U87 MG cells, two hours with compound.

PI3Kα, sequence (P42336 whole entry): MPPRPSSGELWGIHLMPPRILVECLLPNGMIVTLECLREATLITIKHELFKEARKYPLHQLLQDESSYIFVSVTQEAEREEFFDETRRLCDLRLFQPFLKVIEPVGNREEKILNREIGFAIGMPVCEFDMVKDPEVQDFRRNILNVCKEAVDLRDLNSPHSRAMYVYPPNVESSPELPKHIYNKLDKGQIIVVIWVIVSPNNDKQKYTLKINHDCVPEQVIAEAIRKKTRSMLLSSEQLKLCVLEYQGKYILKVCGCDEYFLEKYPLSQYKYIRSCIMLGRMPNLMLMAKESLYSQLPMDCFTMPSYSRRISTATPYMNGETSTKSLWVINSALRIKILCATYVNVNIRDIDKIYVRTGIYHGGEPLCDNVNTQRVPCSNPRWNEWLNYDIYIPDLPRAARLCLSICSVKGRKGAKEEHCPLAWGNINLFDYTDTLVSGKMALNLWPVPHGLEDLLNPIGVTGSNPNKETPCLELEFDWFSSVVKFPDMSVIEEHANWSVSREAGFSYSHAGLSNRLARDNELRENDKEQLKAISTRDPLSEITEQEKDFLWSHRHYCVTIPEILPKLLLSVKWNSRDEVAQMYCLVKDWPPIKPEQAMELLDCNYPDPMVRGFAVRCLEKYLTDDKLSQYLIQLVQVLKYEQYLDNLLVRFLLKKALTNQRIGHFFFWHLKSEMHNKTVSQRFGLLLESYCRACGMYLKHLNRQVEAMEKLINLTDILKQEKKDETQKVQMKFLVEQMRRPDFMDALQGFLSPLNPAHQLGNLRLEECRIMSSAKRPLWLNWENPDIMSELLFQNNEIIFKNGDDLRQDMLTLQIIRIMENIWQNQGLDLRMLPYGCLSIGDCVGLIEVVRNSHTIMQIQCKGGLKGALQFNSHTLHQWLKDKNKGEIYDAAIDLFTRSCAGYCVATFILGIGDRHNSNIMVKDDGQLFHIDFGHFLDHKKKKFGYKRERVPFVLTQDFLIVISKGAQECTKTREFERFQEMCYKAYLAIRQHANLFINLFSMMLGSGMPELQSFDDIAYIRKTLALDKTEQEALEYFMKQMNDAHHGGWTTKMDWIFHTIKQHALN
PI3Kα, sequence (P27986 whole entry partner): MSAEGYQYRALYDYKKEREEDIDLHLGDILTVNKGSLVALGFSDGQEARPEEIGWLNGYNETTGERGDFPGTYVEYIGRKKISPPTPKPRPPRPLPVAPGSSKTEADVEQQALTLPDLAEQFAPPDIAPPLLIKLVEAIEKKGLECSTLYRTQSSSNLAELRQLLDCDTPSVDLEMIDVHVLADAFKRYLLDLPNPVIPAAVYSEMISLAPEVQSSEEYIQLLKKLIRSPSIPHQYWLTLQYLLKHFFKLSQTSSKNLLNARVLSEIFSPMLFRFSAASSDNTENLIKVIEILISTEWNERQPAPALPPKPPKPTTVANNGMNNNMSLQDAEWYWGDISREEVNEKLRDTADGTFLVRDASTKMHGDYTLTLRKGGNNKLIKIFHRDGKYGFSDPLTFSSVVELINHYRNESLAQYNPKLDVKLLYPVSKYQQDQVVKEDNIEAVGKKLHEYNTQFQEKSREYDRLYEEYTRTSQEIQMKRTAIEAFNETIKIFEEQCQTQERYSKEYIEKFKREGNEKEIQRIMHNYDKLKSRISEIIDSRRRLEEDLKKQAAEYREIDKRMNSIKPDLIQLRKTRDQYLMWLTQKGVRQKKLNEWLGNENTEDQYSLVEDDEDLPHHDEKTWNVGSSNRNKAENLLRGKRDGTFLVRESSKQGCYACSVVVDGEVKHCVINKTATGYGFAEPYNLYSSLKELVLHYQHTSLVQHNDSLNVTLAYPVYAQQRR

For orientation: Ki means a measure of affinity in units of concentration, obtained from inhibition or displacement. A word on the IC50: it is the concentration that inhibits the measured activity by half. For `COc1ccc(Nc2ncc(CN3CCN(C(=O)N(C)C)CC3)cc2-c2nc(C)nc3[nH]cnc23)cn1` [Example 87, 4-((6-(6-Methoxypyridin-3-Ylamino)-5-(2-Methyl-9H-Purin-6-yl)Pyridin-3-yl)Methyl)-N,N-Dimethylpiperazine-1-Carboxamide], at PI3Kα, the inhibition constant Ki was determined as 0.043 µM. Moreover, the IC50 in test [1] is 0.209 µM.

`COc1ccc(Nc2ncc(CN3CCN(S(=O)(=O)N(C)C)CC3)cc2-c2nc(C)nc3[nH]cnc23)cn1` [Example 88, 4-((6-(6-Methoxypyridin-3-Ylamino)-5-(2-Methyl-9H-Purin-6-yl)Pyridin-3-yl)Methyl)-N,N-Dimethylpiperazine-1-Sulfonamide]: on PI3Kα, the Ki was 0.007 µM. For the same compound, in test [1], the IC50 was determined as 0.045 µM.

Take `COc1ccc(Nc2ncc(NCc3ccccc3)cc2-c2nc(C)nc3[nH]cnc23)cn1` [Example 91, N5-benzyl-N2-(6-methoxypyridin-3-yl)-3-(2-methyl-9H-purin-6-yl)pyridine-2,5-diamine]: the Ki at PI3Kα was 0.057 µM. The IC50 in test [1] worked out at 0.378 µM.

For `COc1ccc(Nc2ncc(Nc3ccccc3)cc2-c2nc(C)nc3[nH]cnc23)cn1` [Example 92, N2-(6-methoxypyridin-3-yl)-3-(2-methyl-9H-purin-6-yl)-N-5-phenylpyridine-2,5-diamine], on PI3Kα, the inhibition constant Ki was determined as 0.033 µM. Further, in test [1], the IC50 stood at 0.916 µM.

On to `COCCNc1cnc(Nc2ccc(OC)nc2)c(-c2nc(C)nc3[nH]cnc23)c1` [Example 93, N5-(2-methoxyethyl)-N2-(6-methoxypyridin-3-yl)-3-(2-methyl-9H-purin-6-yl)pyridine-2,5-diamine], for which the inhibitory constant (Ki) at PI3Kα was determined as 0.104 µM. The half-inhibitory concentration (IC50) in test [1] was 0.929 µM.

For `CCNc1cnc(Nc2ccc(OC)nc2)c(-c2nc(C)nc3[nH]cnc23)c1` [Example 94, N5-ethyl-N2-(6-methoxypyridin-3-yl)-3-(2-methyl-9H-purin-6-yl)pyridine-2,5-diamine], the Ki on PI3Kα amounted to 0.181 µM. For the same compound, the 50% inhibitory concentration (IC50) in test [1] was determined as 1.23 µM.

In the case of `COc1ccc(CNc2cnc(Nc3ccc(OC)nc3)c(-c3nc(C)nc4[nH]cnc34)c2)cc1` [Example 95, N5-(4-methoxybenzyl)-N2-(6-methoxypyridin-3-yl)-3-(2-methyl-9H-purin-6-yl)pyridine-2,5-diamine], the inhibition constant (Ki) at PI3Kα stood at 0.077 µM. In test [1], the half-maximal inhibitory concentration (IC50) was determined as 0.272 µM.

Regarding `COc1ccc(Nc2ncc(N3CCC(O)C3)cc2-c2nc(C)nc3[nH]cnc23)cn1` (centres unmarked) [Example 98, 1-(6-(6-Methoxypyridin-3-Ylamino)-5-(2-Methyl-9H-Purin-6-yl)Pyridin-3-yl)Pyrrolidin-3-ol], the inhibitory constant (Ki) at PI3Kα was 0.079 µM. Also, the IC50 in test [1] is 0.297 µM.

`COc1ccc(Nc2ncc(N3CCN(S(C)(=O)=O)CC3)cc2-c2nc(C)nc3[nH]cnc23)cn1` [Example 99, N-(6-Methoxypyridin-3-yl)-3-(2-Methyl-9H-Purin-6-yl)-5-(4-(Methylsulfonyl)Piperazin-1-yl)Pyridin-2-Amine]: the Ki at PI3Kα amounted to 0.023 µM. In addition, in test [1], the IC50 came to 0.204 µM.

As to `COc1ccc(Nc2ncc(N3CCC[C@H]3CO)cc2-c2nc(C)nc3[nH]cnc23)cn1` [Example 100, ((2S)-1-(6-(6-Methoxypyridin-3-Ylamino)-5-(2-Methyl-9H-Purin-6-yl)Pyridin-3-yl)Pyrrolidin-2-yl)Methanol], on PI3Kα, the Ki is 0.029 µM. Also, the half-inhibitory concentration (IC50) in test [1] worked out at 0.192 µM.

`COc1ccc(Nc2ncc(N3CCC[C@@H]3CO)cc2-c2nc(C)nc3[nH]cnc23)cn1` [Example 101, ((2R)-1-(6-(6-Methoxypyridin-3-Ylamino)-5-(2-Methyl-9H-Purin-6-yl)Pyridin-3-yl)Pyrrolidin-2-yl)Methanol]: at PI3Kα, the inhibition constant (Ki) was found to be 0.04 µM. Moreover, the half-inhibitory concentration (IC50) in test [1] was found to be 0.293 µM.

Turning to `Cc1nc(-c2cc(Cc3ccc(S(C)(=O)=O)cc3)cnc2Nc2ccc(N)nc2)c2nc[nH]c2n1` [Example 106, N5-(3-(2-methyl-9H-purin-6-yl)-5-(4-(methylsulfonyl)benzyl)pyridin-2-yl)pyridine-2,5-diamine], the inhibition constant Ki at PI3Kα was determined as 0.012 µM. Further, in test [1], the IC50 is 0.14 µM.

For `Cc1nc(-c2cnccc2Nc2cccc3[nH]ncc23)c2nc[nH]c2n1` [Example 110, N-(3-(2-methyl-9H-purin-6-yl)pyridin-4-yl)-1H-indazol-4-amine], the Ki at PI3Kα stood at 0.264 µM. For the same compound, the IC50 in test [1] came to 2.42 µM.

For the compound `COc1ccc(Nc2ccncc2-c2nc(C)nc3[nH]cnc23)cn1` [Example 111, 6-methoxy-N-(3-(2-methyl-9H-purin-6-yl)pyridin-4-yl)pyridin-3-amine], the inhibitory constant (Ki) at PI3Kα came to 0.252 µM. Also, the 50% inhibitory concentration (IC50) in test [1] was found to be 1.17 µM.

Turning to `Cc1nc(N)cc(-c2nccnc2Nc2cccc3[nH]ncc23)n1` [Example 112, N-(3-(6-amino-2-methylpyrimidin-4-yl)pyrazin-2-yl)-1H-indazol-4-amine], the Ki at PI3Kα came out at 0.098 µM. Also, the 50% inhibitory concentration (IC50) in test [1] came to 0.45 µM.

Consider `COc1ccc(Nc2nc3ccccc3cc2-c2nc(C)nc3[nH]cnc23)cn1` [Example 113, N-(6-Methoxypyridin-3-yl)-3-(2-Methyl-9H-Purin-6-yl)Quinolin-2-Amine], for which the Ki on PI3Kα was 0.038 µM. In addition, the half-maximal inhibitory concentration (IC50) in test [1] was more than 10 µM.

With `COc1ccc(Nc2nc(N)ncc2-c2nc(C)nc(N)n2)cn1` [Example 118, 5-(4-amino-6-methyl-1,3,5-triazin-2-yl)-N4-(6-methoxypyridin-3-yl)pyrimidine-2,4-diamine], the Ki at PI3Kα amounted to 0.113 µM. Also, the half-maximal inhibitory concentration (IC50) in test [1] worked out at 0.172 µM.

Take `COc1ccc(Nc2nc(N3CCOCC3)ncc2-c2nc(C)nc(N)n2)cn1` [Example 120, 4-(4-(6-methoxypyridin-3-ylamino)-2-morpholinopyrimidin-5-yl)-6-methyl-1,3,5-triazin-2-amine]: the Ki at PI3Kα came to 0.097 µM. For the same compound, the IC50 in test [1] came to 0.148 µM.

In the case of `COc1ccc(Nc2nc(N(C)C)ncc2-c2nc(C)nc(N)n2)cn1` [Example 121, 5-(4-amino-6-methyl-1,3,5-triazin-2-yl)-N4-(6-methoxypyridin-3-yl)-N2,N2-dimethylpyrimidine-2,4-diamine], the inhibition constant Ki at PI3Kα was 0.045 µM. Also, the concentration for half-maximal inhibition (IC50) in test [1] turned out to be 0.19 µM.

For the compound `COc1ccc(Nc2nc(N3CCCC3)ncc2-c2nc(C)nc(N)n2)cn1` [Example 122, 4-(4-(6-methoxypyridin-3-ylamino)-2-(pyrrolidin-1-yl)pyrimidin-5-yl)-6-methyl-1,3,5-triazin-2-amine], the Ki at PI3Kα stood at 0.051 µM. Moreover, in test [1], the IC50 stood at 0.725 µM.

On to `COc1ccc(Nc2nc(N3CCCCC3)ncc2-c2nc(C)nc(N)n2)cn1` [Example 123, 4-(4-(6-methoxypyridin-3-ylamino)-2-(piperidin-1-yl)pyrimidin-5-yl)-6-methyl-1,3,5-triazin-2-amine], for which, on PI3Kα, the inhibition constant (Ki) stood at 0.102 µM. The IC50 in test [1] was more than 10 µM.

As for `COc1ccc(Nc2nc(-c3ccc(F)cc3)ncc2-c2nc(C)nc(N)n2)cn1` [Example 125, 4-(2-(4-fluorophenyl)-4-(6-methoxypyridin-3-ylamino)pyrimidin-5-yl)-6-methyl-1,3,5-triazin-2-amine], the Ki on PI3Kα came out at 0.504 µM. In addition, the IC50 in test [1] is more than 10 µM.

`Cc1nc(N)nc(-c2cc(CN3CCN(S(C)(=O)=O)CC3)cnc2Nc2ccc3ocnc3c2)n1` [Example 128, N-(3-(4-amino-6-methyl-1,3,5-triazin-2-yl)-5-((4-(methylsulfonyl)piperazin-1-yl)methyl)pyridin-2-yl)benzo[d]oxazol-5-amine]: on PI3Kα, the Ki is 0.007 µM. Further, the IC50 in test [1] stood at 0.021 µM.

For `Cc1nc(N)nc(-c2cc(CN3CCOCC3)cnc2Nc2ccc3scnc3c2)n1` [Example 129, N-(3-(4-amino-6-methyl-1,3,5-triazin-2-yl)-5-(morpholinomethyl)pyridin-2-yl)benzo[d]thiazol-5-amine], the inhibition constant Ki at PI3Kα was found to be 0.1 µM. The concentration for half-maximal inhibition (IC50) in test [1] came to 0.083 µM.

`COc1ncc(Nc2ncc(CN3CCOCC3)cc2-c2nc(C)nc(N)n2)cc1F` [Example 130, 4-(2-(5-fluoro-6-methoxypyridin-3-ylamino)-5-(morpholinomethyl)pyridin-3-yl)-6-methyl-1,3,5-triazin-2-amine]: the inhibition constant Ki on PI3Kα worked out at 0.02 µM. Besides, the IC50 in test [1] worked out at 0.014 µM.

In the case of `COc1ccc(Nc2ncc(CNC(C)(C)C)cc2-c2nc(C)nc3[nH]cnc23)cn1` [Example 134, 5-((tert-butylamino)methyl)-N-(6-methoxypyridin-3-yl)-3-(2-methyl-9H-purin-6-yl)pyridin-2-amine], the Ki at PI3Kα stood at 0.217 µM. Further, the IC50 in test [1] was found to be 1.25 µM.

For `COc1ccc(Nc2ncc(CNC(C)C)cc2-c2nc(C)nc3[nH]cnc23)cn1` [Example 135, 5-((isopropylamino)methyl)-N-(6-methoxypyridin-3-yl)-3-(2-methyl-9H-purin-6-yl)pyridin-2-amine], the Ki on PI3Kα worked out at 0.12 µM. Further, the IC50 in test [1] was determined as 0.435 µM.

As to `COc1ccc(Nc2ncc(CNCc3ccccn3)cc2-c2nc(C)nc3[nH]cnc23)cn1` [Example 136, N-(6-methoxypyridin-3-yl)-3-(2-methyl-9H-purin-6-yl)-5-((pyridin-2-ylmethylamino)methyl)pyridin-2-amine], the Ki at PI3Kα came to 0.054 µM. In test [1], the 50% inhibitory concentration (IC50) worked out at 0.124 µM.

Take `COc1ccc(Nc2ncc(CNCc3ccncc3)cc2-c2nc(C)nc3[nH]cnc23)cn1` [Example 137, N-(6-methoxypyridin-3-yl)-3-(2-methyl-9H-purin-6-yl)-5-((pyridin-4-ylmethylamino)methyl)pyridin-2-amine]: on PI3Kα, the Ki was 0.04 µM. In addition, the IC50 in test [1] was 0.181 µM.

For the compound `COc1ccc(Nc2ncc(CNCc3cccnc3)cc2-c2nc(C)nc3[nH]cnc23)cn1` [Example 138, N-(6-methoxypyridin-3-yl)-3-(2-methyl-9H-purin-6-yl)-5-((pyridin-3-ylmethylamino)methyl)pyridin-2-amine], the Ki at PI3Kα is 0.048 µM. Further, in test [1], the IC50 worked out at 0.172 µM.

On to `COc1ccc(Nc2ncc(C(O)c3ccc(S(C)(=O)=O)cc3)cc2-c2nc(C)nc3[nH]cnc23)cn1` (centres unmarked) [Example 139, (6-(6-methoxypyridin-3-ylamino)-5-(2-methyl-9H-purin-6-yl)pyridin-3-yl)(4-(methylsulfonyl)phenyl)methanol], for which the Ki at PI3Kα is 0.005 µM. In addition, the IC50 in test [1] amounted to 0.185 µM.
